Patent publication US9867795B2, “Nitrated lipids and methods of making and using thereof” (The UAB Research Foundation, priority 2004, dated 2018)
Where two headings read alike, the source gives them in different places.

Columns and labels:
hPPARγ = molecular target: T1, hPPARγ (Homo sapiens, UniProt P37231); assay: CV-1 PPRE×3 TK-Luciferase transient transfection assay; format: cell-based; details: for PPARγ-dependent reporter gene expression by LNO2 decay products, oxidized linoleic acid derivatives and •NO donors: PPARγ-transfected CV-1 cells, FIG. 8C; for activation of PPARγ reporter gene expression compared with vehicle control: 1 and 3 μM, CV-1 cells, PPRE reporter
T1 construct: For assessing full-length PPAR receptors, CV-1 cells were transiently co-transfected; expressed in transfected cells; host or cells: CV-1 cells
T1 sequence (P37231 1-505): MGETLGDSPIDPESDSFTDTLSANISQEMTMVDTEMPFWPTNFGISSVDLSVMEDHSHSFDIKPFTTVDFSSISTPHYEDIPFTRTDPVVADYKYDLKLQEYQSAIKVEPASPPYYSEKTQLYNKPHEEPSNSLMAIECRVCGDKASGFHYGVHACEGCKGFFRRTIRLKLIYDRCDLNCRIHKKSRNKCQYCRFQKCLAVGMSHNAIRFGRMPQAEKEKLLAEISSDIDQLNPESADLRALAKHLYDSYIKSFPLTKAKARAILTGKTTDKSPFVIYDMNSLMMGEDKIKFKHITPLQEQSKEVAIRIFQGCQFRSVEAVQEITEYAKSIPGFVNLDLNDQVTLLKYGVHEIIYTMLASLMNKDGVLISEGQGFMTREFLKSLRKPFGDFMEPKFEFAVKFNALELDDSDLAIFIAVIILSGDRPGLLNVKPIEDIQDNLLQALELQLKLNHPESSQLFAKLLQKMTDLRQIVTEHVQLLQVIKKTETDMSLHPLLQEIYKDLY
Excerpt: Cell Transient Transfection Assay. […] Then, cells were transiently co-transfected with a plasmid containing the luciferase gene under regulation by four Gal4 DNA binding elements (UASG×4 TK-Luciferase, a gift from Dr. Ronald M. Evans), in concert with plasmids containing the ligand binding domain for the different nuclear receptors fused to the Gal4 DNA binding domain. For assessing full-length PPAR receptors, CV-1 cells were transiently co-transfected with a plasmid containing the luciferase gene under the control of three tandem PPAR response elements (PPRE) (PPRE×3 TK-Luciferase) and hPPARγ, hPPARα or hPPARδ expression plasmids, respectively. In all cases, fluorescence protein (GFP) expression plasmid was co-transfected as the control for the transfection efficiency. Twenty-four hours after the transfection, cells were cultured for another 24 hours in Optium-MEM (Invitrogen, Carlsbad, Calif.). Then, cells were treated with different compounds as indicated in figures for 24 hours in Optium-MEM. Reporter luciferase assay kits from Promega (Madison, Wis.) were used to measure the luciferase activity according to the manufacturer's instructions with a luminometer (Victor II, Perkin-Elmer). Luciferase activity was normalized by GFP units. Each condition was performed at least in triplicates in each experiment.
PPAR transient transfection assay. […] Twelve hours before transfection, the media was removed and antibiotic-free media was applied. Cells were transiently co-transfected with a plasmid containing the luciferase gene under the control of three tandem PPAR response elements (PPRE) (PPRE×3 TK-Luciferase) and PPARγ, PPARα or PPARδ expression plasmids, respectively. In all cases, fluorescence protein (GFP) expression plasmid was co-transfected as the control for transfection efficiency. Twenty-four hours after transfection, cells the returned to OptiMEM (Invitrogen, Carlsbad, Calif.) for 24 hr and then treated as indicated for another 24 hr. Reporter luciferase assay kits from Promega (Madison, Wis.) were used to measure the luciferase activity according to the manufacturer's instructions with a luminometer (Victor II, Perkin-Elmer). Luciferase activity was normalized by GFP units. Each condition was performed in triplicate in each experiment (n>3).

[1] = tested on: human vascular endothelial cells and macrophages; assay: Whole Human Genome Oligo Array gene expression; format: cell-based; details: 24 hours; LNO2O 2.5 mM, linoleic acid 2.5 μM
Procedure: The nitroalkenes of the present invention also display regulatory actions towards the expression of genes related to inflammatory responses, cell growth, cell differentiation, cell signaling, cell death (apoptosis) and metabolism. For example, nitrolinoleate regulates gene expression in human vascular endothelial cells and macrophages. Cells were stimulated with vehicle and linoleic acid (2.5 μM, the latter two treatments as controls) and LNO2O ([…]) for 24 hours. The total RNA was purified with a Qiagen Kit and analyzed with a Whole Human Genome Oligo Array (G4112A, 41K Genes, Agilent). […] In contrast, the native (precursor) fatty acid, linoleic acid, only regulates 14 genes, with an up-regulation of 5 genes and the down-regulation of 9 genes.

NF-kB pathways = assay: NF-kB pathway activity (NFkB-response element luciferase reporter, IkB degradation); format: cell-based; details: reporter in response to TNFa; IkB degradation in response to E. coli LPS
Human PPARγ1 (GST-PPARγ) [2] = molecular target: T2, Human PPARγ1 (GST-PPARγ) (Homo sapiens, UniProt P37231); details: read-out: previously reported Ki for PPARγ; cited from earlier work
T2 sequence (P37231 1-477 isoform P37231-2): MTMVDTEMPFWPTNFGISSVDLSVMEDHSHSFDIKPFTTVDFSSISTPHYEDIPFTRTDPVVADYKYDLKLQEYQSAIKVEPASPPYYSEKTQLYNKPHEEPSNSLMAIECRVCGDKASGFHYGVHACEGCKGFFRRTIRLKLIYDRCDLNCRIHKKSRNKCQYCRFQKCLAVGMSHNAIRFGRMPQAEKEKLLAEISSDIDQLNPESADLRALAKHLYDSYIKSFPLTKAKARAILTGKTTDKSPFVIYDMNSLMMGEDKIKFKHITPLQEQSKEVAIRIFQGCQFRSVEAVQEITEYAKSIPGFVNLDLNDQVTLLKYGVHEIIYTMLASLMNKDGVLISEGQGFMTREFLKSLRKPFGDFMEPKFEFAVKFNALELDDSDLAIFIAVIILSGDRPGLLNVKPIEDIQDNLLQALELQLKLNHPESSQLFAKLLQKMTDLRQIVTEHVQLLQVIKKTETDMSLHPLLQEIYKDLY

Human PPARγ1 (GST-PPARγ) [3] = molecular target: T2, Human PPARγ1 (GST-PPARγ); assay: PPARγ competition binding assay ([^3H]Rosiglitazone displacement); details: calculated / estimated
Procedure: PPARγ Competition Binding Assay. Human PPARγ1 cDNA was inserted into pGEX from Amersham Biosciences Corp (Piscataway, N.J.) containing the gene encoding glutathione S-transferase (GST). GST-PPARγ protein induction and receptor binding was assessed as previously described (17).

CCCCC/C=C\C=C\C(=O)CCCCCCCC(=O)O [9-oxoODE]
PPARγ-dependent reporter gene expression by LNO2 decay products, oxidized linoleic acid derivatives and •NO donors (hPPARγ): modest PPARγ activation

CCCCCC(=O)/C=C/C=C\CCCCCCCC(=O)O [13-oxoODE]
PPARγ-dependent reporter gene expression by LNO2 decay products, oxidized linoleic acid derivatives and •NO donors (hPPARγ): no effect

CCCCCCC=CC=CCCCCCCCC(=O)O [CLA1, Δ^9,11-conjugated linoleic acid]
activation of PPARγ reporter gene expression compared with vehicle control (hPPARγ): no significant activation

CCCCCC=CC=CCCCCCCCCC(=O)O [CLA2, Δ^10,12-conjugated linoleic acid]
activation of PPARγ reporter gene expression compared with vehicle control (hPPARγ): no significant activation

CCCCCCCC/C=C\CCCCCCCCOC[C@@H](O)COP(=O)(O)O [LPA-18:1, 1-O-9-(Z)-octadecenyl-2-hydroxy-sn-glycero-3-phosphate]
activation of PPARγ reporter gene expression compared with vehicle control (hPPARγ): no significant activation

CCCCCCCCCCCCCCCC(=O)OC[C@H](COP(=O)([O-])OCC[N+](C)(C)C)OC(=O)CCCCCCCC(=O)O [azPC ester, 1-Palmitoy-2-Azelaoyl-sn-Glycero-3-Phosphocholine]
activation of PPARγ reporter gene expression compared with vehicle control (hPPARγ): no significant activation

CCCCCCCCCCCCCCCCOC[C@H](COP(=O)([O-])OCC[N+](C)(C)C)OC(=O)CCCCCCCC(=O)O [azPC, 1-O-hexadecyl-2-azelaoyl-sn-glycero-3-phosphocholine]
activation of PPARγ reporter gene expression compared with vehicle control (hPPARγ): no significant activation

CCCCC/C=C\C/C=C\CCCCCCCC(=O)O [linoleic acid, reference compound]
number of genes down-regulated [1]: 9 genes | number of genes regulated [1]: 14 genes | number of genes up-regulated [1]: 5 genes | activation of PPARγ reporter gene expression compared with vehicle control (hPPARγ): no significant activation | activity of NF-kB pathways (NF-kB pathways): not | Ki (Human PPARγ1 (GST-PPARγ) [2]): 1.7 to 17 µM | Ki (Human PPARγ1 (GST-PPARγ) [3]): > 1000 nM | expression of adipocyte markers (PPARγ2 and aP2) (3T3-L1 preadipocytes; immunoblot of cell lysate): not detected

CCCCCCCCC=CCCCCCCCC(=O)O [oleic acid, 9-Octadecenoic acid, reference compound]
adipogenesis / adipocyte differentiation (morphology, oil red O) (3T3-L1 preadipocytes; two weeks, Rosiglitazone 3 μM, linoleic acid 10 μM, oleic acid 3 μM): did not induce adipogenesis
